In ChEMBL document CHEMBL5647688, “Mitogen-activated protein kinase (MEK/ERK) inhibition sensitizes cancer cells to centromere-associated protein E inhibition” (Int J Cancer, 2013):

Tests used:
Type in all cases: functional
Calu-6 = experiment: Synergistic cytotoxicity against human Calu-6 cells expressing KRAS mutant assessed as combination index at ED75 measured after 72 hrs in presence of MEK inhibitor GSK1120212 by Cell-titer Glo reagent assay
NCI-H2228 = experiment: Synergistic cytotoxicity against human NCI-H2228 cells assessed as combination index at ED75 measured after 72 hrs in presence of MEK inhibitor GSK1120212 by Cell-titer Glo reagent assay
NCI-H358 = experiment: Synergistic cytotoxicity against human NCI-H358 cells expressing KRAS mutant assessed as combination index at ED75 measured after 72 hrs in presence of MEK inhibitor GSK1120212 by Cell-titer Glo reagent assay
HPAF-II [1] = experiment: Synergistic cytotoxicity against human HPAF-II cells expressing KRAS mutant assessed as combination index at ED75 measured after 72 hrs in presence of MEK inhibitor GSK1120212 by Cell-titer Glo reagent assay
NCI-H2170 = experiment: Synergistic cytotoxicity against human NCI-H2170 cells assessed as combination index at ED 50 measured after 72 hrs in presence of MEK inhibitor GSK1120212 by Cell-titer Glo reagent assay
CAPAN-1 = experiment: Synergistic cytotoxicity against human CAPAN-1 cells expressing KRAS mutant assessed as combination index at ED 50 measured after 72 hrs in presence of MEK inhibitor GSK1120212 by Cell-titer Glo reagent assay
NCI-H2030 = experiment: Synergistic cytotoxicity against human NCI-H2030 cells expressing KRAS mutant assessed as combination index at ED75 measured after 72 hrs in presence of MEK inhibitor GSK1120212 by Cell-titer Glo reagent assay
NB-1691 [2] = experiment: Synergistic cytotoxicity against human NB-1691 cells assessed as combination index at ED 50 measured after 72 hrs in presence of concurrent treatment of […] inhibitor CI-1040 by Cell-titer Glo reagent assay
A549 [3] = experiment: Synergistic cytotoxicity against human A549 cells expressing KRAS mutant assessed as combination index at ED 50 measured after 72 hrs in presence of MEK inhibitor GSK1120212 by Cell-titer Glo reagent assay
NB-1691 [4] = experiment: Synergistic cytotoxicity against human NB-1691 cells assessed as combination index at ED 75 measured after 72 hrs in presence of SN-38 by Cell-titer Glo reagent assay
SK-N-FI [5] = experiment: Synergistic cytotoxicity against human SK-N-FI cells assessed as combination index at ED 75 measured after 72 hrs in presence of SN-38 and temozolomide by Cell-titer Glo reagent assay
NB-1691 [6] = experiment: Synergistic cytotoxicity against human NB-1691 cells assessed as combination index at ED 75 measured after 72 hrs in presence of concurrent treatment of […] inhibitor CI-1040 by Cell-titer Glo reagent assay
HPAF-II [7] = experiment: Synergistic cytotoxicity against human HPAF-II cells expressing KRAS mutant assessed as combination index at ED 50 measured after 72 hrs in presence of MEK inhibitor GSK1120212 by Cell-titer Glo reagent assay
SW48 = experiment: Synergistic cytotoxicity against human SW48 cells assessed as combination index at ED75 measured after 72 hrs in presence of MEK inhibitor GSK1120212 by Cell-titer Glo reagent assay
NCI-H2122 = experiment: Synergistic cytotoxicity against human NCI-H2122 cells expressing KRAS mutant assessed as combination index at ED 50 measured after 72 hrs in presence of MEK inhibitor GSK1120212 by Cell-titer Glo reagent assay
HuP-T4 [8] = experiment: Synergistic cytotoxicity against human HuP-T4 cells expressing KRAS mutant assessed as combination index at ED75 measured after 72 hrs in presence of MEK inhibitor GSK1120212 by Cell-titer Glo reagent assay
A549 [9] = experiment: Synergistic cytotoxicity against human A549 cells expressing KRAS mutant assessed as combination index at ED75 measured after 72 hrs in presence of MEK inhibitor GSK1120212 by Cell-titer Glo reagent assay
NCI-H460 [10] = experiment: Synergistic cytotoxicity against human NCI-H460 cells expressing KRAS mutant assessed as combination index at ED75 measured after 72 hrs in presence of MEK inhibitor GSK1120212 by Cell-titer Glo reagent assay
SK-N-FI [11] = experiment: Synergistic cytotoxicity against human SK-N-FI cells assessed as combination index at ED 75 measured after 72 hrs in presence of concurrent treatment of […] inhibitor CI-1040 by Cell-titer Glo reagent assay
NB-1691 [12] = experiment: Synergistic cytotoxicity against human NB-1691 cells assessed as combination index at ED 75 measured after 72 hrs in presence of temozolomide by Cell-titer Glo reagent assay
YAPC = experiment: Synergistic cytotoxicity against human […] cells expressing KRAS mutant assessed as combination index at ED 50 measured after 72 hrs in presence of MEK inhibitor GSK1120212 by Cell-titer Glo reagent assay
NCI-H1563 = experiment: Synergistic cytotoxicity against human NCI-H1563 cells assessed as combination index at ED 50 measured after 72 hrs in presence of MEK inhibitor GSK1120212 by Cell-titer Glo reagent assay
[13] = Synergistic cytotoxicity against human NB-1771 cells assessed as combination index at ED 50 measured after 72 hrs in presence of concurrent treatment of […] inhibitor CI-1040 by Cell-titer Glo reagent assay
NCI-H460 [14] = experiment: Synergistic cytotoxicity against human NCI-H460 cells expressing KRAS mutant assessed as combination index at ED 50 measured after 72 hrs in presence of MEK inhibitor GSK1120212 by Cell-titer Glo reagent assay
HuP-T4 [15] = experiment: Synergistic cytotoxicity against human HuP-T4 cells expressing KRAS mutant assessed as combination index at ED 50 measured after 72 hrs in presence of MEK inhibitor GSK1120212 by Cell-titer Glo reagent assay
RKO = experiment: Synergistic cytotoxicity against human RKO cells expressing BRAF mutant assessed as combination index at ED 50 measured after 72 hrs in presence of MEK inhibitor GSK1120212 by Cell-titer Glo reagent assay
MIA PaCa-2 = experiment: Synergistic cytotoxicity against human MIA PaCa-2 cells expressing KRAS mutant assessed as combination index at ED 50 measured after 72 hrs in presence of MEK inhibitor GSK1120212 by Cell-titer Glo reagent assay
SW900 = experiment: Synergistic cytotoxicity against human SW900 cells expressing KRAS mutant assessed as combination index at ED 50 measured after 72 hrs in presence of MEK inhibitor GSK1120212 by Cell-titer Glo reagent assay
ASPC1 = experiment: Synergistic cytotoxicity against human ASPC1 cells expressing KRAS mutant assessed as combination index at ED75 measured after 72 hrs in presence of MEK inhibitor GSK1120212 by Cell-titer Glo reagent assay
Capan-2 = experiment: Synergistic cytotoxicity against human Capan-2 cells expressing KRAS mutant assessed as combination index at ED75 measured after 72 hrs in presence of MEK inhibitor GSK1120212 by Cell-titer Glo reagent assay

With CC(C)Oc1ccc(C(=O)N[C@H](CNC(=O)CN(C)C)Cc2ccc(-c3cn4cccc([C@H](C)O)c4n3)cc2)cc1Cl [GSK-923295A] the CI (Calu-6) was 0.533, the CI (NCI-H2228) was 0.404 and the CI (NCI-H358) was 0.467. It also gave a CI (HPAF-II [1]) of 0.473, a CI (NCI-H2170) of 0.37 and a CI (CAPAN-1) of 0.053. For the same compound, the CI (NCI-H2030) was 2.329, the CI (NB-1691 [2]) was 0.256 and the CI (A549 [3]) was 0.614. It also gave a CI (NB-1691 [4]) of 0.886, a CI (SK-N-FI [5]) of 1.058 and a CI (NB-1691 [6]) of 0.308. The CI (HPAF-II [7]) was 0.567, the CI (SW48) was 0.091 and the CI (NCI-H2122) was 0.85. The CI (HuP-T4 [8]) was 0.892, the CI (A549 [9]) was 0.402 and the CI (NCI-H460 [10]) was 0.294. For the same compound, the CI (SK-N-FI [11]) was 0.379, the CI (NB-1691 [12]) was 0.241 and the CI (YAPC) was 0.659. The CI (NCI-H1563) was 0.405, the CI [13] was 0.136 and the CI (NCI-H460 [14]) was 0.25. It also gave a CI (HuP-T4 [15]) of 0.452, a CI (RKO) of 0.373 and a CI (MIA PaCa-2) of 0.394. The CI (SW900) was 0.705, the CI (ASPC1) was 0.323 and the CI (Capan-2) was 0.153.
